Test results from patent US7585883B2, “Substituted pyridines and their uses” (Rigel Pharmaceuticals, Inc., priority 2004, dated 2009).

Legend:
[1] = system: cultured human mast cells (CHMC); experiment: CHMC low cell density ionomycin activation: tryptase assay (ionomycin-induced degranulation); format: cell-based; conditions: ionomycin 2 μM final, tryptase release, read-out: Iono (second symbol of IgE/Iono): IC50 of ionomycin-induced degranulation
Experimental: (§1) To duplicate 96-well U-bottom plates (Costar 3799) add 65 ul of compound dilutions or control samples that have been prepared in MT [137 mM NaCl, 2.7 mM KCl, 1.8 mM CaCl2, 1.0 mM MgCl2, 5.6 mM Glucose, 20 mM Hepes (pH 7.4), 0.1% Bovine Serum Albumin, (Sigma A4503)] containing 2% MeOH and 1% DMSO. Pellet CHMC cells (980 rpm, 10 min) and resuspend in pre-warmed MT. Add 65 ul of cells to each 96-well plate. Depending on the degranulation activity for each particular CHMC donor, load 1000-1500 cells/well. Mix four times followed by a 1 hr incubation at 37° C. During the 1 hr incubation, prepare 6× anti-IgE solution [rabbit anti-human IgE (1 mg/ml, Bethyl Laboratories A80-109A) diluted 1:167 in MT buffer]. Stimulate cells by adding 25 ul of 6× anti-IgE solution to the appropriate plates. Add 25 ul MT to un-stimulated control wells. Mix twice following addition of the anti-IgE. Incubate at 37° C. for 30 minutes. During the 30 minute incubation, dilute the 20 mM tryptase substrate stock solution [(Z-Ala-Lys-Arg-AMC 2TFA; Enzyme Systems Products, #AMC-246)] 1:2000 in tryptase assay buffer [0.1 M Hepes (pH 7.5), 10% w/v Glycerol, 10 uM Heparin (Sigma H-4898) 0.01% NaN3]. Spin plates at 1000 rpm for 10 min to pellet cells. Transfer 25 ul of supernatant to a 96-well black bottom plate and add 100 ul of freshly diluted tryptase substrate solution to each well. Incubate plates at room temperature for 30 min. Read the optical density of the plates at 355 nm/460 nm on a spectrophotometric plate reader.
To confirm that many of the pyridine compounds of the invention exert their inhibitory activity by blocking or inhibiting the early IgE receptor signal transduction cascade, several of the compounds were tested in cellular assays for ionomycin-induced degranulation, as described below.
Assays for ionomycin-induced mast cell degranulation were carried out as described for the CHMC Low Density IgE Activation assays, supra, with the exception that during the 1 hour incubation, 6× ionomycin solution [5 mM ionomycin (Sigma I-0634) in MeOH (stock) diluted 1:416.7 in MT buffer (2 μM final)] was prepared and cells were stimulated by adding 25 μl of the 6× ionomycin solution to the appropriate plates.

[2] = system: cultured human mast cells (CHMC); experiment: CHMC low cell density IgE activation: tryptase assay (IgE-induced degranulation); format: cell-based; conditions: anti-IgE stimulation, tryptase release, read-out: IgE (first symbol of IgE/Iono): IC50 of IgE-induced degranulation
Experimental: Inhibition of degranulation was measured at both low and high cell density by quantifying the release of the granule specific factors tryptase, histamine and hexosaminidase. Inhibition of release and/or synthesis of lipid mediators was assessed by measuring the release of leukotriene LTC4 and inhibition of release and/or synthesis of cytokines was monitored by quantifying TNF-α, IL-6 and IL-13. Tryptase and hexosaminidase were quantified using fluorogenic substrates as described in their respective examples. Histamine, TNFα, IL-6, IL-13 and LTC4 were quantified using the following commercial ELISA kits: histamine (Immunotech #2015, Beckman Coulter), TNFα (Biosource #KHC3011), IL-6 (Biosource #KMC0061), IL-13 (Biosource #KHC0132) and LTC4 (Cayman Chemical #520211). The protocols of the various assays are provided below.
7.2.7 CHMC Low Cell Density IgE Activation: Tryptase and LTC4 Assays
as §1

IC50 [1] [µM]	IC50 [2] [µM]	SMILES
< 10	< 10	O=C(Nc1ccc(OC(F)(F)F)cc1)Nc1ccc(S(=O)(=O)CCOC(=O)c2cccc(Cl)c2)nc1 [Compound 57, 2-[(5-{4-Trifluoromethoxyphenylureido}-2-pyridinyl)sulfonyl]ethyl-3-chlorobenzoate]
< 10	< 10	O=C(OCCS(=O)(=O)c1ccc([N+](=O)[O-])cn1)c1ccc(Cl)cc1 [Compound 9, 2-[(5-Nitro-2-pyridinyl)sulfonyl]ethyl 4-chlorobenzoate]
< 10	< 10	O=C(NCCS(=O)(=O)c1ccc([N+](=O)[O-])cn1)c1cccc(Cl)c1 [Compound 42, 3-Chloro-N-[2-({5-nitro-2-pyridinyl}sulfonyl)ethyl]benzamide]
< 10	< 10	O=C(OCCS(=O)(=O)c1ccc([N+](=O)[O-])cn1)c1cccc(F)c1 [Compound 15, 2-[(5-Nitro-2-pyridinyl)sulfonyl]ethyl 3-fluorobenzoate]
< 10	< 10	O=C(OCCS(=O)(=O)c1ccc([N+](=O)[O-])cn1)c1ccc(F)cc1 [Compound 16, 2-[(5-Nitro-2-pyridinyl)sulfonyl]ethyl 4-fluorobenzoate]
< 10	< 10	O=C(OCCS(=O)(=O)c1ccc([N+](=O)[O-])cn1)c1ccccc1 [Compound 13, 2[(5-Nitro-2-pyridinyl)sulfonyl]ethyl benzoate]
> 10	> 10	O=C(Nc1ccccc1)Nc1ccc(S(=O)(=O)CCOC(=O)c2cccc(Cl)c2)nc1 [Compound 55, 2-[(5-{Phenylureido}-2-pyridinyl)sulfonyl]ethyl-3-chlorobenzoate]
< 10	< 10	CC(=O)OCCS(=O)(=O)c1ccc([N+](=O)[O-])cn1 [Compound 17, 2-[(5-Nitro-2-pyridinyl)sulfonyl]ethyl acetate]
< 10	< 10	CCC(=O)OCCS(=O)(=O)c1ccc([N+](=O)[O-])cn1 [Compound 18, 2-[(5-Nitro-2-pyridinyl)sulfonyl]ethyl propionate]
< 10	< 10	O=C(OCCS(=O)(=O)c1ccc([N+](=O)[O-])cn1)c1cccc(OC(F)(F)F)c1 [Compound 19, 2-[(5-Nitro-2-pyridinyl)sulfonyl]ethyl 3-trifluoromethoxybenzoate]
< 10	< 10	O=C(OCCS(=O)(=O)c1ccc(N2C(=O)c3ccccc3C2=O)cn1)c1cccc(Cl)c1 [Compound 66, [(5-{1,3-Dihydro-1,3-dioxo-2H-isoindol-2-yl}-2-pyridinyl)sulfonyl]ethyl 3-chlorobenzoate]
< 10	< 10	O=C(OCCS(=O)(=O)c1ccc([N+](=O)[O-])cn1)c1cccc(C(F)(F)F)c1 [Compound 11, 2-[(5-Nitro-2-pyridinyl)sulfonyl]ethyl 3-trifluoromethylbenzoate]
< 10	< 10	CC(=O)NCCS(=O)(=O)c1ccc([N+](=O)[O-])cn1 [Compound 40]
> 10	> 10	O=C(OCCSc1ccc([N+](=O)[O-])cn1)c1cccc(Cl)c1 [Compound 5, 2-[(5-Nitro-2-pyridinyl)thio]ethyl-3-chlorobenzoate]
< 10	< 10	O=C(OCCS(=O)(=O)c1ccc([N+](=O)[O-])cn1)c1ccccc1C(F)(F)F [Compound 12, 2-[(5-Nitro-2-pyridinyl)sulfonyl]ethyl-2-trifluoromethylbenzoate]
< 10	< 10	O=C(OCCS(=O)(=O)c1ccc([N+](=O)[O-])cn1)c1cccc(Cl)c1 [Compound 6, 2-[(5-Nitro-2-pyridinyl)sulfonyl]ethyl 3-chlorobenzoate]
< 10	< 10	O=C(OCCS(=O)(=O)c1ccc(C(F)(F)F)cn1)c1cccc(Cl)c1 [Compound 21, 2-[(5-Trifluoromethyl-2-pyridinyl)-2-sulfonyl]ethyl 3-chlorobenzoate]
> 10	> 10	O=C(OCCS(=O)(=O)c1ccc(N2C(=O)CCC2=O)cn1)c1cccc(Cl)c1 [Compound 67, [(5-{2,5-Dioxotetrahydro-1H-pyrrol-1-yl}-2-pyridinyl)sulfonyl]ethyl 3-chlorobenzoate]
> 10	> 10	CCNC(=O)Nc1ccc(S(=O)(=O)CCOC(=O)c2cccc(Cl)c2)nc1 [Compound 56, 2-[(5-{Ethylureido}-2-pyridinyl)sulfonyl]ethyl-3-chlorobenzoate]
< 10	< 10	O=C(OCC[S+]([O-])c1ccc([N+](=O)[O-])cn1)c1cccc(Cl)c1 (centres unmarked) [Compound 50, 2-[(5-nitro-2-pyridinyl)sulfinyl]ethyl-3-chlorobenzoate]
< 10	< 10	O=C(OCCS(=O)(=O)c1ccc([N+](=O)[O-])cn1)c1ccccc1F [Compound 14, 2-[(5-Nitro-2-pyridinyl)sulfonyl]ethyl 2-fluorobenzoate]

SMILES	IC50 [1] [µM]	IC50 [2] [µM]
CC(C)(C)OC(=O)NCCS(=O)(=O)c1ccc([N+](=O)[O-])cn1 [Compound 41, 2-[(2-{N-tert-Butoxycarbonylamino}ethyl)sulfonyl]-5-nitropyridine]	< 10	< 10
